Here are results for 22 compounds from ChEMBL document CHEMBL1144863, “Novel histone deacetylase inhibitors: design, synthesis, enzyme inhibition, and binding mode study of SAHA-based non-hydroxamates” (Bioorg Med Chem Lett, 2003).

Experiment [1] addresses Histone deacetylase (Homo sapiens) (UniProt Q13547+O15379+Q9UBN7+Q92769+Q9UQL6+Q8WUI4+Q9BY41+Q96DB2+P56524+Q9UKV0+Q969S8). The note with it: at 100 µM.
Description: In vitro inhibitory activity against histone deacetylase (HDAC) isolated from HeLa nuclear extract at a concentration of 100 uM
The next experiment deals with Histone deacetylase. In words: In vitro inhibitory activity against histone deacetylase (HDAC) isolated from HeLa nuclear extract. The experiment is classed as protein assay, Homo sapiens.

A value given as a limit tells only on which side of the number the result lay.

A word on the inhibition: it is the percentage by which the read-out fell short of the control. A low value points to a response near the control. For orientation: IC50 means the midpoint of a concentration-inhibition curve. A high value points to lower potency.

For `O=C(CCCCCCNC(=O)C(F)(F)F)Nc1ccccc1`, in experiment [1], the inhibition was determined as 3%. On Histone deacetylase, this compound displayed an IC50 of more than 100 µM.
For `O=C(CBr)NCCCCCCCC(=O)Nc1ccccc1`, in experiment [1], the inhibition is 40%. At Histone deacetylase, this compound came in with a concentration for half-maximal inhibition (IC50) of 300 µM.
Taken in the same sequence, the figures for `C#CCNCCCCCCC(=O)Nc1ccccc1` were 16% and more than 100 µM.
Taken in the same sequence, the figures for `COC(=O)NCCCCCCC(=O)Nc1ccccc1` were 12% and more than 100 µM.
Taken in the same sequence, the figures for `C#CCN(CC#C)CCCCCCC(=O)Nc1ccccc1` were 8% and more than 100 µM.
Turning to `NC(=O)NCCCCCCC(=O)Nc1ccccc1`, the inhibition in experiment [1] came out at 7%. Moreover, the concentration for half-maximal inhibition (IC50) on Histone deacetylase was more than 100 µM.
The like results for `O=C(CCCCCCC(=O)OCCO)Nc1ccccc1` were, in that order, 5% and more than 100 µM.
Taken in the same sequence, the figures for `NNC(=O)NCCCCCCC(=O)Nc1ccccc1` were 18% and 650 µM.
Taken in the same sequence, the figures for `O=C(CCCCCC/C(=N/O)c1ccccn1)Nc1ccccc1` were 0% and more than 100 µM.
Take `NCCNC(=O)CCCCCCC(=O)Nc1ccccc1`: the inhibition in experiment [1] was found to be 3%. The compound also showed an IC50 on Histone deacetylase of more than 100 µM.
The like results for `O=C(CBr)NCCCCCCC(=O)Nc1ccccc1` were, in that order, 79% and 14 µM.
Taken in the same sequence, the figures for `O=C(CCCCCCC(=O)c1ccccn1)Nc1ccccc1` were 15% and more than 100 µM.
The like results for `O=C(CBr)NCCCCC(=O)Nc1ccccc1` were, in that order, 47% and 121 µM.
`Nc1ccccc1NC(=O)CCCCCCC(=O)Nc1ccccc1` registered an inhibition in experiment [1] of 48%. The compound also gave a 50% inhibitory concentration (IC50) at Histone deacetylase of 120 µM.
The like results for `O=C(CCCCCCNC(=O)C(Cl)(Cl)Cl)Nc1ccccc1` were, in that order, 4% and more than 100 µM.
Taken in the same sequence, the figures for `NNC(=O)NCCCCCC(=O)Nc1ccccc1` were 35% and 150 µM.
The like results for `CCOC(=O)NCCCCCCC(=O)Nc1ccccc1` were, in that order, 19% and more than 100 µM.
Consider `O=C(CCCCCCC(=O)Nc1ccccc1)NCCO`, for which the inhibition in experiment [1] stood at 4%. On Histone deacetylase, this compound showed an IC50 of more than 100 µM.
Taken in the same sequence, the figures for `NNC(=O)NCCCCC(=O)Nc1ccccc1` were 12% and more than 1000 µM.
Taken in the same sequence, the figures for `O=C(CCCCCCC(=O)Nc1nccs1)Nc1ccccc1` were 9% and more than 100 µM.
Consider `O=C(CCCCCCC(=O)Nc1ccccn1)Nc1ccccc1`, for which, in experiment [1], the inhibition worked out at 8%. Further, the IC50 on Histone deacetylase is more than 100 µM.
The like results for `O=C(CBr)NCCCCCC(=O)Nc1ccccc1` were, in that order, 78% and 17 µM.
